In general, solubility refers to the dissolved amount per volume that the medium holds.

Common to all, as to format: physicochemical
The nature of series [1]: Solubility of piracetam and pantothenic acid in stock. The following applies: glycerin/2,3 butane diol stock, organic solvent or mixture.
The nature of series [2]: Preparation of compositions (Example 3): appearance and stability of the solution. To be noted: heated at 175° C.
Series [3] can be described thus: Increase in solubility of active compounds in the present compositions. The text has this: It is advantageous to take measures to increase the solubility of an active compound or active compounds within a composition that includes components that serve as excipients such that true solubilization of the compound(s) occurs and the activity of the active compounds are retained upon transition to the vapor phase. The present disclosure is based on the result that the solubility of active compounds can be increased by surprising and unexpected amounts.

A short description of series [4]: Folate solubility in glycerin/2,3 butane diol stock compositions with co-solutes (incremental addition, heat gun, stirring). As for the experimental part: Folate. Folate and biotin are the two most difficult to dissolve B vitamins. Folate solubility enhancement was provided by addition of beta-cyclodextrin.
The solubility enhancement from mannitol/biotin alone was tested next. […] This is major improvement over most polar solvents (0.0016 g/L of water at 25° C.).
First the mannitol/biotin powder was mixed with 0.004 g of folate. This was added to the test tube followed by the liquid. It was stirred vigorously. Then it was heated with a heat gun until clear and no folate was suspended. […] All the liquid was moved to another test tube and the precipitate remained. Then folate was incrementally added (about 1 mg) and the solution was stirred, followed by heating** until it became clear. It would take at least 3 minutes of heating for it to become clear but as more folate was added, at least 4 minutes of heating were needed. This is how the original solution was formed. Over the course of several days there was no further precipitate or increase in viscosity. ** all heating was done with the yellow heat gun on the lowest setting (240° F.)
While heating and stirring the lid popped off and 0.75 ml of solution spilled out. Even accounting for folate lost in the spill, currently at least 8 mg of folate have been dissolved in 2.75 ml and the solution is completely clear. Heating the solution caused the lid to pop so it must be removed after about 1 minute and 30 seconds of heating prior to any further heating. It is also crucial for the solution to have been flipped upside down, preferably while warm. The solution must not be heated while flipped as this may cause a spill.
The original solution still has less much viscosity but also a slightly lower concentration of folate. It appears that somewhere beyond 8 mg folate/[…] of solution it becomes supersaturated, resulting in a thick gel upon settling and cooling. […] As long as supersaturation followed by settling is avoided, the solution will remain liquid. Another option is to study the effect of precipitation inhibitors or the sonicator to further boost solubility without increasing viscosity.
Testing was also done with only stock, stock+water and stock+ethanol but having both water and ethanol is crucial to the process. […] Despite having separated the liquid from the precipitate which was nearly all biotin/mannitol, the powder still played a role in improving folate solubility. […] The following composition (3 ml stock+0.25 ml water+0.25 ml ethanol+0.009 g of biotin) dissolved 11.2 mg of folate but became extremely viscous.
According to research on drug solubility there is a class of molecules known as hydrotropes (also known as chaotropes, […]). They reduce hydrophobic forces between non-polar solutes in polar solvents. One such molecule is niacinamide (vitamin B3 amide). These hydrotropes are planar and are either very polar or have nonpolar and polar sides like surfactants but shorter. This experiment was repeated with niacinamide as a cosolute and with a combination of B3 amide and Biotin. The biotin and B3 amide were added along with 4 mg of folate (and crushed together) wet into dry to the solution. The remaining folate was added incrementally along with heating and stirring. […] (2.5 ml stock+0.5 ml water+0.5 ml ethanol+0.0221 g of B3 amide) dissolved approximately 11 mg of folate and a small amount of precipitate. (2.5 ml stock+0.5 ml water+0.5 ml ethanol+0.0221 g of B3 amide+0.090 g pure biotin) dissolved approximately 11.4 mg of folate without precipitate. Unfortunately both solutions were extremely viscous after a few days.
Eventually the B3 amide and biotin cosolute solution was prepared using “reverse stock” instead of regular with the goal of lowering viscosity. The reverse stock is a solution of 3:7 mol glycerin and 2,3 butane diol. Initially this made folate precipitate so additional glycerin was added to achieve a 1:1 mol ratio of glycerin to 2,3 butane diol.

The nature of series [5]: Trans resveratrol solubility in stock with solvents and co-solutes (incremental addition, heat gun). To be noted: solution 2 (3.5 ml pure carvone) and solution 4 (3 ml carvone+0.5 ml ethanol), without heating. Here is the method: The initial approach was to test non polar solvents and their effectiveness with ethanol. This included pure stock as a control, carvone, and combinations of those solvents with ethanol. The following solvents were prepared: Control—3.5 ml of pure stock, 1-1.75 ml of stock+1.75 ml of carvone+0.2 ml of 0.01 mol NaOH, 2-3.5 ml of pure carvone, 3-3 ml of stock+0.5 ml of ethanol, 4-3 ml of carvone+0.5 ml of ethanol.
Solution 1 became biphasic and cloudy. The control and solution 4 have approximately the same solubility of TR. […] Solvent was added until the TR was dissolved which occurred at 60 mg/ml of stock. This original solution was split into 5 test tubes of 1 ml each with about 0.06 g of TR.
The following solutions were made: 1—adding […] of carvone (equimolar with TR, 0.000263 mol of each) 2—adding 0.175 ml of ethanol 3-0.235 ml of carvone and 0.1 ml of ethanol. Solution 1 became cloudy because the carvone is immiscible with the stock. Several attempts to fix this were made using of ethanol and B3 amide as hydrotropes but it had no effect.
Next co-solutes were used along with the TR in stock solution. 0.000263 mol of the following were dissolved along with TR in 3 ml stock: 1-niacin, 2-caffeine, 3-gallic acid, 4-salicylic acid, 5-thiamine, 6-niacinamide, and 7-pantothenic acid. Two additional samples were prepared of 0.01 g biotin (8) and 0.04 g of -pyridoxine HCl (9). Each solution consisted of the stated amount of co-solute and 3 ml of stock. The following amounts of TR (which was added incrementally (30-40 mg) and heated for 3-4 minutes by heat gun) created the following:
To conduct further testing 0.5 ml of ethanol was added to the solutions with niacin, biotin, thiamine, and salicylic acid. The successful B3 amide solution was split into two solutions of (1.625 and 1.375 ml) with 0.25 ml of ethanol being added to the 1.375 ml solution. The results were as follows:
There was also testing with multiple solutes in 3 ml of stock:
Currently piperazine hexahydrate is being tested as it is another hydrotrope. […] It may work better with other co-solutes or ethanol.

Series [6] can be described thus: Folate solubility in glycerin/2,3 butane diol stock compositions with co-solutes (incremental addition, heat gun, stirring). To be noted: 2.5 ml stock+0.15 ml water+0.15 ml ethanol+0.01135 g beta-cyclodextrin+0.0182 g biotin/mannitol+0.00441 folate, without heating.

In brackets after ≈: the same amount, converted by molar mass.

As to `NC(=O)CN1CCCC1=O` [Piracetam, piracetam], the solubility in series [1] came to 36.5 mg/mL (≈ 257 mM). Also, the appearance of composition result in series [2] (0.2 grams piracetam in 1.5 ml stock, 2.0 ml fruit flavored vodka, 0.1 ml flavored glycerin) is recorded as “clear solution with flavor”.
As for `Nc1nc2ncc(CNc3ccc(C(=O)N[C@@H](CCC(=O)O)C(=O)O)cc3)nc2c(=O)[nH]1` [folate, folic acid], the increase in solubility in series [3] is reported as ≤ 15,000%. The “amount of folate dissolved” value in series [4] (0.0221 g B3 amide, 0.0047 mg biotin, 3.5 ml equimolar glycerin and 2,3 butane diol, 0.5 ml water, 0.5 ml ethanol) is given as 9 mg; in series [4] (2.5 ml stock+0.5 ml water+0.5 ml ethanol+0.0221 g B3 amide+0.090 g pure biotin, without precipitate) it was “approximately 11.4 mg”; in series [4] (2.5 ml stock+0.5 ml water+0.5 ml ethanol+0.0221 g B3 amide, small amount of precipitate) it was “approximately 11 mg”; in series [4] (3 ml stock+0.25 ml water+0.25 ml ethanol+0.009 g biotin) it was 11.2 mg; in series [4] (3 ml stock+0.25 ml water+0.25 ml ethanol+0.0182 g biotin/mannitol), “approximately 0.008 g”; in series [4] (liquid only part of the same solution, no mannitol/biotin powder), less than 1.6 mg. For the same molecule, the “amount of folate dissolved” value in series [4] (repeat experiment, in 2.75 ml of the biotin/mannitol solution, completely clear) was “at least 8 mg”. The “concentration beyond which solution becomes supersaturated (thick gel on settling and cooling)” value in series [4] (stock+water+ethanol+biotin/mannitol solution) is listed as > 8 mg folate/3.5 ml of solution. Also, in series [5], the “dissolution in carvone solvents” value is listed as “easily dissolved”. Further, the appearance of composition result in series [2] (8 mg folic acid, 22.1 mg nicotinamide, 4.7 mg biotin in 3.5 ml (0.5 mol glycerin/0.5 mol propylene glycol), 0.5 ml water, 0.5 ml ethanol, flavors) is recorded as “clear solution with flavor”. Further, the appearance of solution result in series [6] is given as “clear with some orange (folate) precipitate on the bottom of the vial”.

These data come from US20180228897A1, “Compositions for Vapor Phase Delivery of Active Compounds, Methods of Making and Using Same, and Kits Comprising Same” (Atmovita, LLC, priority 2015, published 2018).
